Columns and labels:
Assay type in all cases: in vivo, mouse
[1] = system: Blymphoma Mo-MLV insertion region 1; assay: GeneChip gene expression in renal glomerulus; conditions: probe 1448733_at, 0.02% in diet, 12 weeks
Method: (§1) Type II diabetic female db/db mice and non-diabetic db/m were purchased from Clea Japan, Inc. Mice were bred under the conditions with a 12 hours light-dark cycle at a temperature of 21° C. to 25° C. For acclimation, mice were fed CE-2 (Clea Japan, Inc.) with free access to water for one week. The mice were divided into three groups each consisting of 8 mice (non-diabetic db/m, diabetic db/db, and astaxanthin-administered db/db) and each group was bred with feed ad libitum. Mice in astaxanthin-administered group were fed a diet in which 0.02% astaxanthin in terms of free astaxanthin was compounded with CE-2. Each group was bred for 12 weeks, and body weight, blood glucose levels, 8-OHdG levels in urine, albumin levels in urine, and kidney histopathology, were measured. Astaxanthin used here was AstaReal (registered trademark, Fuji Chemical Industry Co., Ltd.) 50F, which is oil composed of astaxanthin fatty acid ester and triglycerides and contains 5% astaxanthin in terms of free astaxanthin.
(§2) After the period of test breeding, kidney was removed and frozen at −80° C. Using an LM200 system (Olympus Corporation), the renal glomerulus was cut from kidney of mice while keeping low temperature. tRNA of renal glomerulus was extracted using tRNA extraction regent “Isogen” (produced by Nippon Gene Co., Ltd.), and then preparation of cRNA and hybridization were performed according to the Affymetrix GeneChip Eukaryotic Small Sample Target Labeling Assay Ver. II.
(§3) (1) Synthesis of first strand cDNA: 1 μL of total RNA solution and 1 of 5 μM T7-Oligo(dT) primer were mixed, heated at 70° C. for 6 minutes, and then cooled at 4° C. for 2 minutes. 3 μL of RT_Premix_1 (1.5 μL DEPC-treated water, 4 μL 5× First strand Buffer, 2 μL DTT (0.1 M), 1.5 μL dNTP Mix (10 mM), 1 μL RNase inhibitor (40 U/μL), and 2 μL Super-Script II (200 U/μL)) was added and reverse transcribed at 42° C. for 1 hour. The sample was heated at 70° C. for 10 minutes to inactivate Super Script II, and then cooled to 4° C. (2) Synthesis of second strand cDNA: 32.5 μl of SS_Premix_1 (91 μL DEPC-treated water, 30 μL 5× Second Strand Buffer, 3 μL dNTP (10 mM), 1 μL E. coli DNA ligase (10 U/μL); 4 μL E. coli DNA polymerase (10 U/μL), and 1 μL RNase H (2 U/μL)) was added to the first strand cDNA solution and allowed to react for 2 hours at 16° C. (3) To the resulting cDNA, was added 1 μL T4 DNA polymerase (5 U/μl) and allowed to react for 10 minutes at 16° C., and purified by ethanol precipitation. (4) In vitro transcription: To the dried double-stranded cDNA pellet, was added 10 μL of reagents (4 μL DEPC-treated water, 4 μL premixed NTPs, 1 μL 10× reaction buffer, and 1 μL 10× enzyme mix), and allowed to react at 37° C. in a water bath for 6 hours. (5) First cycle cRNA was purified using the RNeasy Mini Kit in accordance with the protocol in the handbook (QIAGEN). (6) Subsequently, for the amplification and labeling, the cRNA sample was mixed with random primers (0.2 μg/μL), treated at 70° C. for 10 minutes, cooled on ice for 2 minutes, 5 μL of RT_Premix_2 (5× First Strand Buffer, DTT (0.1 M), dNTP mix (10 mM), RNase inhibitor (40 U/μL), and SuperScript II (200 U/μL) was added, and allowed to react at 42° C. for 1 hour. (7) Next, Second Sstrand cDNA synthesis was carried out by adding 5 μM T7-Oligo(dT) promoter treating at 70° C. for 6 minutes, cooling at 4° C., and adding 62 μL of SS_Premix_2 (43 μL it DEPC-treated water, 15 μL 5× Second Strand Buffer, 1.5 μL dNTP mix (10 mM), and 2 μL E. coli DNA polymerase (10 U/μL)). (8) To the resulting cDNA, was treated added 1 μL of T4 DNA polymerase (5 U/μL), allowed to react at 16° C. for 10 minutes, and purified by ethanol precipitation. […]

[2] = system: fibrosin 1; assay: GeneChip gene expression in renal glomerulus; conditions: probe 1433816_at, 0.02% in diet, 12 weeks
Method: as §1, §2, §3

[3] = system: peroxiredoxin 1; assay: GeneChip gene expression in renal glomerulus; conditions: probe 1436691_x_at, 0.02% in diet, 12 weeks
Method: as §1, §2, §3

[4] = system: septin 7; assay: GeneChip gene expression in renal glomerulus; conditions: probe 1454610_at, 0.02% in diet, 12 weeks
Method: as §1, §2, §3

[5] = system: secreted posphoprotein 1; assay: GeneChip gene expression in renal glomerulus; conditions: probe 1449254_at, 0.02% in diet, 12 weeks
Method: as §1, §2, §3

[6] = system: ring finger protein 128; assay: GeneChip gene expression in renal glomerulus; conditions: probe 1449036_at, 0.02% in diet, 12 weeks
Method: as §1, §2, §3

[7] = system: MAD homolog 4 (Dorosophia); assay: GeneChip gene expression in renal glomerulus; conditions: probe 1422486_a_at, 0.02% in diet, 12 weeks
Method: as §1, §2, §3

[8] = system: matrix metalloproteinase 8; assay: GeneChip gene expression in renal glomerulus; conditions: probe 1449366_at, 0.02% in diet, 12 weeks
Method: as §1, §2, §3

[9] = system: superoxide dismutase 1, soluble; assay: GeneChip gene expression in renal glomerulus; conditions: 0.02% in diet, 12 weeks
Method: as §1, §2, §3

[10] = system: erythropoietin receptor; assay: GeneChip gene expression in renal glomerulus; conditions: probe 1423344_at, 0.02% in diet, 12 weeks
Method: as §1, §2, §3

[11] = system: C1q related factor; assay: GeneChip gene expression in renal glomerulus; conditions: probe 1422777_at, 0.02% in diet, 12 weeks
Method: as §1, §2, §3

[12] = system: collagen, type XXV, alpha 1; assay: GeneChip gene expression in renal glomerulus; conditions: probe 1438655_a_at, 0.02% in diet, 12 weeks
Method: as §1, §2, §3

[13] = system: Type II diabetic female db/db mice; assay: Onset of diabetic complication in db/db mice (urine albumin, urine 8-OHdG, blood glucose, kidney histopathology)
Method: as §1
FIG. 1 is a photomicrograph of glomerulus.

## CC1=C(/C=C/C(C)=C/C=C/C(C)=C/C=C/C=C(C)/C=C/C=C(C)/C=C/C2=C(C)C(=O)C(O)CC2(C)C)C(C)(C)CC(O)C1=O (stereo not drawn) [astaxanthin, 3,3′-dihydroxy-β,β-carotene-4,4′-dione]
[1]
  gene expression relative ratio db/db(Ax):db/db: 0.76
  gene expression relative ratio db/db(Ax):db/m: 8.00
[2]
  gene expression relative ratio db/db(Ax):db/db: 0.31
  gene expression relative ratio db/db(Ax):db/m: 8
[3]
  gene expression relative ratio db/db(Ax):db/db: 0.14
  gene expression relative ratio db/db(Ax):db/m: 9.19
[4]
  gene expression relative ratio db/db(Ax):db/db: 0.76
  gene expression relative ratio db/db(Ax):db/m: 36.76
[5]
  gene expression relative ratio db/db(Ax):db/db: 0.13
  gene expression relative ratio db/db(Ax):db/m: 0.66
[6]
  gene expression relative ratio db/db(Ax):db/db: 0.1
  gene expression relative ratio db/db(Ax):db/m: 1.62
[7]
  gene expression relative ratio db/db(Ax):db/db: 1.00
  gene expression relative ratio db/db(Ax):db/m: 27.86
[8]
  gene expression intensity ratio db/db(Ax):db/db: 2.00
  gene expression intensity ratio db/db(Ax):db/m: 0.62
[9]
  gene expression relative ratio db/db(Ax):db/db: 0.23
[9]; probe 1448184_at (Table 5)
  gene expression relative ratio db/db(Ax):db/m: 4.00
[10]
  gene expression relative ratio db/db(Ax):db/db: 2.30
  gene expression relative ratio db/db(Ax):db/m: 0.71
[11]
  gene expression intensity ratio db/db(Ax):db/db: 1.32
  gene expression intensity ratio db/db(Ax):db/m: 0.71
[12]
  gene expression intensity ratio db/db(Ax):db/db: 0.19
  gene expression intensity ratio db/db(Ax):db/m: 0.87
[13]; at the end (12 weeks), db/db mice, diet with 0.02% astaxanthin (AstaReal 50F)
  Albumin level in urine: 77.8 ± 44.6 mg/dL
[13]; at the start, astaxanthin-administered db/db mice
  Albumin level in urine: 46.2 ± 1.5 mg/dL
[13]; diabetic db/db mice, diet with 0.02% astaxanthin, 12 weeks
  blood glucose levels: reduces blood glucose levels
[13]; kidney of db/db(Ax) vs db/db mice
  enlargement of glomerular mesangium (microscope): apparently moderated
